Measurements reported in patent publication US9498387B2, “Absorbent article having bent sections” (UNICHARM CORPORATION, priority 2012, dated 2016).

From the text: As used herein, the term “solubility” in regard to water solubility includes cases where the sample completely dissolves in deionized water to form a homogeneous mixture, and cases where the sample is completely emulsified. As used herein, “completely” means that no mass of the sample remains in the deionized water.

CCCCCCCCCCCCOC(=O)CCCCCCCCCCC [2-18]
Water solubility: <0.05 g

CCCCCCCCCCCCCC(=O)OCCCCCCCCCCCC [2-19]
Water solubility: <0.05 g
